In assay [1] the target is T1, neutrophil collagenase (MMP-8) (Homo sapiens, UniProt P22894).
T1 construct: Catalytic Domain of Human Stromelysin (MMP-3) and of Neutrophil Collagenase (MMP-8); made in house
Briefly: Enzymatic activity of the catalytic domain of neutrophil collagenase (MMP-8), fluorogenic substrate. Type of assay: biochemical. On the procedure: Preparation and Determination of the Enzymatic Activity of the Catalytic Domain of Human Stromelysin (MMP-3) and of Neutrophil Collagenase (MMP-8)
The two enzymes stromelysin (MMP-3) and neutrophil collagenase (MMP-8) were prepared by the method of Ye et al. (Biochemistry; 31 (1992) pages 11 231-11 235). The enzymic activity or the effect of the enzyme inhibitor was measured by incubating 10 μl of enzyme solution with 10 μl of a 3% strength (v/v) buffered dimethyl sulfoxide solution which contained the enzyme inhibitor where appropriate, for 15 minutes. After addition of 10 μl of a 3% strength (v/v) aqueous dimethyl sulfoxide solution which contained 1 mmol/l of the substrate, the enzymic reaction was followed by fluorescence spectroscopy (328 nm (ex)/393 nm(em)). The enzymic activity is presented as increase in extinction/minute.
The IC50 values listed in Table 4 were determined as the inhibitor concentrations leading in each case to 50% inhibition of the enzyme. The buffer solution contained 0.05% Brij (Sigma, Deisenhofen, Germany) and 0.1 mol/l Tris/HCl, 0.1 mol/l NaCl, 0.01 mol/l CaCl2 and 0.1 mol/l piperazine-N,N′-bis[2-ethanesulfonic acid] (pH=7.5).
The MMP-3 enzyme solution contained 2.3 μg/ml and the MMP-8 enzyme solution 0.6 μg/ml of one of the enzyme domains prepared by the method of Ye et al. The substrate solution contained 1 mmol/l of the fluorogenic substrate (7-methoxycoumarin-4-yl)acetyl-Pro-Leu-Gly-Leu-3-(2′,4′-dinitrophenyl)-L-2,3-diaminopropionyl-Ala-Arg-NH2 (Bachem, Heidelberg, Germany).

Assay [2] has as its target T2, catalytic domain of human collagenase-3 (MMP-13) (Homo sapiens, UniProt P45452).
T2 construct: Determination of the Enzymatic Activity of the Catalytic Domain of Human Collagenase-3 (MMP-13); purchased INVITEK, Berlin
Briefly: Enzymatic activity of the catalytic domain of human collagenase-3 (MMP-13), fluorogenic substrate. Type of assay: biochemical. The protocol:
Determination of the Enzymatic Activity of the Catalytic Domain of Human Collagenase-3 (MMP-13)
Activation of the proenzyme: 2 parts by volume of proenzyme were incubated with 1 part by volume of APMA solution at 37° C. for 1.5 hours. The APMA solution was prepared from a 10 mmol/l p-aminophenylmercuric acetate solution in 0.1 mmol/l NaOH by dilution with 3 parts by volume of Tris/HCl buffer pH 7.5 (see below). The pH was adjusted to between 7.0 and 7.5 by adding 1 mmol/l HCl. After activation of the enzyme it was diluted with the Tris/HCl buffer to a concentration of 1.67 μg/ml.
The enzymic activity was measured by incubating 10 μl of enzyme solution with 10 μl of a 3% strength (v/v) buffered dimethyl sulfoxide solution (reaction 1) for 15 minutes. The enzyme inhibitor activity was measured by incubating 10 μl of enzyme solution with 10 μl of a 3% strength (v/v) buffered dimethyl sulfoxide solution which contained the enzyme inhibitor (reaction 2).
The enzymic reaction both in the case of reaction 1 and in the case of reaction 2 was followed after addition of 10 μl of a 3% strength (v/v) aqueous dimethyl sulfoxide solution which contained 0.075 mmol/l of the substrate by fluorescence spectroscopy (328 nm (extinction)/393 nm (emission)).
The enzymic activity has been presented as increase in extinction/minute. The effect of the inhibitor was calculated as percentage inhibition by the following formula: % inhibition=100−[(increase in extinction/minute in reaction 2)/(increase in extinction/minute in reaction 1)×100].
The IC50, which is the concentration of inhibitor which is necessary for 50% inhibition of the enzymic activity, was determined graphically by plotting the percentage inhibitions at various inhibitor concentrations.
The buffer solution contained 0.05% Brij (Sigma, Deisenhofen, Germany) and 0.1 mol/l Tris/HCl, 0.1 mol/l NaCl, 0.01 mol/l CaCl2 (pH=7.5). The enzyme solution contained 1.67 μg/ml of the enzyme domain. The substrate solution contained 0.075 mmol/l of the fluorogenic substrate (7-methoxycoumarin-4-yl)acetyl-Pro-Leu-Gly-Leu-3-(2′,4′-dinitrophenyl)-L-2,3-diaminopropionyl-Ala-Arg-NH2 (Bachem, Heidelberg, Germany).

pIC50: −log10 of the molar value.

T1 sequence (P22894 100-262 limits assumed): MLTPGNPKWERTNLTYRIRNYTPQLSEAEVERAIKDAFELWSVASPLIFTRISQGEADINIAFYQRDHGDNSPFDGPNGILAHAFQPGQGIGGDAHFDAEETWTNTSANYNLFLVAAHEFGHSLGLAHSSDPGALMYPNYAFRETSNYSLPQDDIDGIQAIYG

On to `O=C(NO)[C@H]1c2ccccc2CCN1S(=O)(=O)c1ccc(Oc2ccc(OC(F)(F)F)cc2)nc1` [Compound 43, (R)-2-[6-(4-trifluoromethoxyphenoxy)pyridine-3-sulfonyl]-1,2,3,4-tetrahydro-isoquinoline-1-hydroxycarboxamide], for which the pIC50 in assay [1] and in assay [2] was 7.52 throughout.
Regarding “2-{2-[4-(4-fluorophenoxy)phenyl]ethanesulfonyl}-1,2,3,4-tetrahydroisoquinoline-1-hydroxycarboxamide [Compound 20]”, the pIC50 in assay [1] and in assay [2] was 8.66 each time.
`COc1ccc(F)c2c1[C@H](C(=O)NO)N(S(=O)(=O)c1ccc(-c3ccc(Cl)cc3)cc1)CC2` [Compound 18]: the pIC50 (commonly −log10 of the IC50, conventionally taken in molar units) in assay [1] was 7.85; in assay [2], 8.12.
For `O=C(NO)[C@H]1c2ccccc2CCN1S(=O)(=O)c1ccc(Oc2ccncc2)cc1` [Compound 11] the same measures were 8.52 and 8.64.
In the same order, the values of `O=C(NO)[C@H]1c2ccccc2CCN1S(=O)(=O)c1ccc(Oc2ccc(Cl)cc2)cc1` [Compound 9] are 8.66 and 8.68.
For `O=C(NO)[C@H]1c2ccccc2CCN1S(=O)(=O)c1ccc(Oc2ccc(C(F)(F)F)cc2)cc1` [Compound 21, (R)-2-[4-(4-trifluoromethylphenoxy)benzenesulfonyl]-1,2,3,4-tetrahydro-isoquinoline-1-hydroxycarboxamide] the same measures were 8.49 and 8.60.
`O=C(NO)[C@H]1c2ccccc2CCN1S(=O)(=O)c1ccc(Oc2ccc(Cl)cc2)nc1` [Compound 45, (R)-2-[6-(4-chlorophenoxy)pyridine-3-sulfonyl]-1,2,3,4-tetrahydroisoquinoline-1-hydroxycarboxamide]: the pIC50 is 8.05 in assay [1] and 8.10 in assay [2].
In the same order, the values of `COc1cc2c(cc1OC)[C@@H](C(=O)NO)N(S(=O)(=O)c1ccc(-c3ccc(Cl)cc3)cc1)CC2` [Compound 15] are 8.70 and 8.70.
In the same order, the values of `O=C(NO)[C@H]1c2ccccc2CCN1S(=O)(=O)c1ccc(Oc2ccc(OCC(F)(F)F)cc2)cc1` [Compound 22] are 6.96 and 6.89.
In the same order, the values of “(R)-4-(1-hydroxycarbamoyl-3,4-dihydro-1H-isoquinoline-2-sulfonyl)phenyl benzoate [Compound 48]” are 8.40 and 8.52.

The values are drawn from patent publication US20070203118A1, “SUBSTITUTED TETRAHYDROISOQUINOLINES USED IN THE FORM OF MMP INHIBITORS, METHOD FOR THE PRODUCTION AND USE THEREOF IN THE FORM OF DRUGS” (SANOFI-AVENTIS DEUTSCHLAND GMBH, priority 2004, published 2007).
